Assays:
[1] = Pharmacokinetics after single intravenous and oral administration to the mouse
Method: Plasma levels and main pharmacokinetic parameters of test compounds were evaluated after single intravenous and oral administration to the mouse.
The formulations were prepared in a mixture of DMSO/PEG400/H2O. Blood was collected at the following sampling times: 5, 10, 15, 30 minutes, 1, 2, 4 and 6 hours after administration. Plasma samples (100 μL) were deproteinized by addition of 1% formic acid in ACN, then vortex mixed and centrifuged. For each sample, an aliquot of the supernatant was collected and diluted with water, filtered with 0.45 μm regenerated cellulose filter and analysed by LC-MS/MS. Plasma levels of the test compounds were calculated on a calibration curve prepared in the range 0.5-200 ng/mL.
Pharmacokinetic parameters were calculated on the mean plasma concentration curve using the software Kinetica™ v.

CT26 tumor = assay: CT-26 murine model, single agents and combination with anti PD-1 (FIG. 3); type: in vivo, BALB/c mice; details: for CT-26 tumor growth/progression, single agent: p.o. 50 mg/Kg daily
Method: FIG. 3: HDAC6 inhibitors reduces CT-26 tumor growth in vivo and their activity can be improved by combined treatment with anti PD-1 antibody. Statistics was evaluated at day 30 by Student's t test. *, P<0.05; **, P<0.01; ***, P<0.001. See text for further details. […] Adult BALB/c mice were injected s.c. with 1×10^6 CT26 tumor cells (diluted to 100 ul with phosphate-buffered saline). One week later, mice were given daily compounds 8 and 10 p.o. at 50 mg/Kg and/or injected with anti-PD1 antibody at 10 mg/Kg. At time of sacrifice, spleens were taken to analyze ex vivo, the tumor immune response. Spleen cells were stimulated with a mixture of CT-26 tumor specific peptides recognized in the context of both MHC I and MHC II. Thus, using this ex vivo stimulation, a specific tumor response mediated by CD4 and CD8 T cells can be detected.

[2] = test system: α-tubulin acetylation in 697 cell line; assay: In vitro α-tubulin acetylation in 697 cell line; type: cell-based; details: 16 hours, read-out: Tubulin acetylation (ratio of acetylated tubulin and total tubulin towards control); for fold induction at 0.037 µM: Conc 37 nM; for fold induction at 0.111 µM: Conc 111 nM; for fold induction at 0.333 µM: Conc 333 nM; for fold induction at 1 µM: Conc 1000 nM
Method: (§1) The in vitro α-tubulin and H3 histone acetylation determination was evaluated on B 697 […] cell line.
(§2) The test molecules were diluted from 20 mM stock solution in DMSO with RPMI 10% FCS+0.01% DMSO medium at 20× concentration compared to the final concentration, added to the cells (15×10^6 cells in a total volume of 30 ml in RPMI medium 10% FCS+0.01% DMSO) to obtain the final concentrations of 1000, 333, 111 and 37 nM and incubated at 37° C., 5% CO2 for 16 hours.
At the end of the incubation period, 5×10^6 cells were taken from each sample, centrifuged for 5 minutes at 1100 rpm and washed in 0.9% NaCl at 4° C. The resulting pellet was lysed by treating at 4° C. for 30 minutes with 150 μl of Complete Lysis-M (Roche, cat-04719956051) containing protease inhibitors and phosphatase (Complete Easy Pack proteinase inhibitor cocktail tablets cat: 04693116001, Phostop easypack phosphatase inhibitor cocktails, cat: 01906837001—Roche), then centrifuged 10 minutes at 14,000 rpm (20817×g). 0.150 μg of supernatant (total protein extract) were diluted in 100 μl of 1×PBS and immobilized in Maxisorp F96 NUN-IMMUNO Plate (Nunc cat #5442404) at room temperature overnight. Plates were washed twice with Wash Buffer (PBS1X+0.005% tween 20) and saturated for 1 hour at room temperature with 300 μL of 1×PBS containing 10 FCS. After washing with buffer (1×PBS containing 0.005% tween), the plates were incubated for two hours at room temperature in the presence of anti-acetylated-α-tubulin antibody (Monoclonal Anti-acetylated-tubulin clone 6-11B-1, mouse ascites fluid, cat #T6793 Sigma, 100 μl diluted 1:1000 in 1×PBS containing 10% FCS) or with total anti-α-tubulin antibody (Monoclonal Anti alpha-tubulin produced in mouse, cat #T6074 Sigma). After washing, 100 μl per well of TMB substrate kit was added for 10 minutes at room temperature in the dark. The reaction was stopped by adding 50 μl of 2N H2SO4. The plates were read at Multiskan Spectrum spectrophotometer at a wavelength of 450 nm.
The degree of acetylation was calculated by dividing the absorbance obtained for acetylated α-tubulin by the absorbance of total α-tubulin.
(§3) Test results of tubulin and H3 histone acetylation, expressed as fold increase of ratio of acetylated α-tubulin/total α-tubulin and H3Ac/H3Tot, respectively, of each sample relative to the control sample (untreated) are summarized in Tables 6 and 6′.

[3] = test system: H3 histone acetylation in 697 cell line; assay: In vitro H3 histone acetylation in 697 cell line; type: cell-based; details: 16 h, read-out: Acetylation of H3 histone (fold increase of acetylated H3/total H3 towards control); for fold induction at 0.111 µM: conc 111 nM; for fold induction at 0.333 µM: conc 333 nM; for fold induction at 1 µM: conc 1000 nM
Method: as §1, §2
The remaining cells (10×10^6) were treated by acid extraction of histones (Kazuhiro et al., PNAS (2002), 99 (13) 8921-8926). Cells were centrifuged 5 min at 1100 rpm at 4° C. and washed once in 0.9% NaCl. The resulting pellet was lysed with […] (10 mM Tris.HCl, pH 6.5/50 mM sodium bisulphite, 1% Triton X-100/10 mM MgCl2/8.6% saccharose containing the protease inhibitor mixture (Roche)) for 20 min at 4° C. The resulting nucleus pellet was repeatedly washed in buffer until supernatant clarification (centrifuged at 7,500×g, 5 minutes after each wash) and finally washed in nucleus buffer (10 mM Tris.HCl/13 mm EDTA, pH 7, 4) and resuspended in 250 μl of 0.2 M HCl/H2SO4. Histone proteins were extracted in an acidic environment by incubating overnight at 4° C. under gentle shaking. After centrifugation at 14,000 rpm at 4° C. for 10 minutes, 1250 μl of cold acetone was added to the supernatant and incubated overnight at −20° C., resulting in the precipitation of histone proteins. The pellet obtained after centrifugation for 10 minutes at 14000 rpm and 4° C. was washed with cold acetone, evaporated to dryness and resuspended in 50 μl distilled water. The protein content determination of both total and histone extracts was carried out by a colorimetric assay using a BCA Protein Assay Kit (Pierce cat: 23227).
H3 histone acetylation and total H3 amount were quantified by commercial ELISA assays PathScan acetylated histone H3 Sandwich Elisa kit, cat #7232C and PathScan total histone H3 Sandwich Elisa Kit, cat #7253C Cell Signaling) according to supplier reported method and by detecting absorbance at 450 nm wavelength using Multiskan Spectrum. ELISA tests were performed by analysing 0.250 μg and 0.500 μg of histone extract of each sample. The degree of acetylation was calculated by dividing H3 histone absorbance by histone total absorbance.
as §3

O=C(NO)c1ccc(Cn2nnnc2-c2cccs2)cc1 [comp. 8, N-hydroxy-4-((5-(thiophen-2-yl)-1H-tetrazol-1-yl)methyl)benzamide]
AUCtot ([1]; Os, dose 5.2 mg/kg): 94 ng·h/mL
Cmax ([1]; Os, dose 5.2 mg/kg): 238 ng/mL
Tmax ([1]; Os, dose 5.2 mg/kg): 4.8 min
T1/2 ([1]; i.v., dose […]): 60 min
Vd ([1]; i.v., dose […]): 15.3 L/kg
bioavailability ([1]; plasma, po, 5.2 mg/kg): 18.5%
CT-26 tumor growth/progression, single agent (CT26 tumor): significantly reduce CT-26 tumor progression

Cn1c(Sc2ccc(C(=O)NO)cc2)nnc1-c1cccs1 [comp. 10, N-hydroxy-4-((4-methyl-5-(thiophen-2-yl)-4H-1,2,4-triazol-3-yl)thio)benzamide]
AUCtot ([1]; Os, dose 5.2 mg/kg): 123 ng·h/mL
Cmax ([1]; Os, dose 5.2 mg/kg): 144 ng/mL
Tmax ([1]; Os, dose 5.2 mg/kg): 15 min
T1/2 ([1]; i.v., dose […]): 78 min
Vd ([1]; i.v., dose […]): 20.5 L/kg
bioavailability ([1]; in vivo, po, 5.2 mg/kg): 25.8%
CT-26 tumor growth inhibition, combination with anti PD-1 antibody (CT26 tumor; compound p.o. 50 mg/Kg plus anti-PD1 antibody 10 mg/Kg): further improves tumor growth inhibition
CT-26 tumor growth/progression, single agent (CT26 tumor): significantly reduce CT-26 tumor progression

O=C(NO)c1cc(F)c(Cn2nnnc2-c2cccs2)c(F)c1 [comp. 15, 3,5-difluoro-N-hydroxy-4-((5-(thiophen-2-yl)-1H-tetrazol-1-yl)methyl)benzamide]
fold induction at 0.037 µM [2]: 1
fold induction at 0.111 µM [2]: 3
fold induction at 0.333 µM [2]: 5
fold induction at 1 µM [2]: 12
fold induction at 0.111 µM [3]: 1
fold induction at 0.333 µM [3]: 1
fold induction at 1 µM [3]: 1

Cn1c(Sc2c(F)cc(C(=O)NO)cc2F)nnc1-c1cccs1 [comp. 17, 3,5-difluoro-N-hydroxy-4-((4-methyl-5-(thiophen-2-yl)-4H-1,2,4-triazol-3-yl)thio)benzamide]
AUC ([1]; plasma, iv, 1.3 mg/kg): 114 ng·h/mL
C0 ([1]; plasma, iv, 1.3 mg/kg): 727 ng/mL
Vd ([1]; plasma, iv, 1.3 mg/kg): 16.8 L/kg
clearance ([1]; plasma, iv, 1.3 mg/kg): 190 mL/min/kg
half-life ([1]; plasma, iv, 1.3 mg/kg): 60 min
Tmax ([1]; plasma, po, […]): 4.8 min
bioavailability ([1]; plasma, po, […]): 18.4%

O=C(NO)c1cc(F)c(Cn2nnc(-c3ccco3)n2)c(F)c1 [comp. 19, 3,5-difluoro-4-((5-(furan-2-yl)-2H-tetrazol-2-yl)methyl)-N-hydroxybenzamide]
fold induction at 0.037 µM [2]: 7
fold induction at 0.111 µM [2]: 15
fold induction at 0.333 µM [2]: 21
fold induction at 1 µM [2]: 17
fold induction at 0.111 µM [3]: 1
fold induction at 0.333 µM [3]: 2
fold induction at 1 µM [3]: 2

O=C(NO)c1cc(F)c(Cn2nnnc2-c2ncccn2)c(F)c1 [comp. 125, 3,5-difluoro-4-[(5-pyrimidin-2-yltetrazol-1-yl)methyl]benzenecarbohydroxamic acid]
fold induction at 0.037 µM [2]: 1
fold induction at 0.111 µM [2]: 3
fold induction at 0.333 µM [2]: 6
fold induction at 1 µM [2]: 14
fold induction at 0.111 µM [3]: 1
fold induction at 0.333 µM [3]: 1
fold induction at 1 µM [3]: 1

Cn1c(Sc2c(F)cc(C(=O)NO)cc2F)nnc1-c1cccc(CN2CCCCCC2)c1 [comp. 167, 4-[[5-[3-(azepan-1-ylmethyl)phenyl]-4-methyl-1,2,4-triazol-3-yl]sulfanyl]-3,5-difluoro-benzenecarbohydroxamic acid]
fold induction at 0.037 µM [2]: 2
fold induction at 0.111 µM [2]: 3
fold induction at 0.333 µM [2]: 9
fold induction at 1 µM [2]: 13
fold induction at 0.111 µM [3]: 1
fold induction at 0.333 µM [3]: 1
fold induction at 1 µM [3]: 2

Cn1c(Sc2c(F)cc(C(=O)NO)cc2F)nnc1-c1ccc(CN2CCCCCC2)cc1 [comp. 168, 4-[[5-[4-(azepan-1-ylmethyl)phenyl]-4-methyl-1,2,4-triazol-3-yl]sulfanyl]-3,5-difluoro-benzenecarbohydroxamic acid]
fold induction at 0.037 µM [2]: 3
fold induction at 0.111 µM [2]: 11
fold induction at 0.333 µM [2]: 19
fold induction at 1 µM [2]: 16
fold induction at 0.111 µM [3]: 1
fold induction at 0.333 µM [3]: 1
fold induction at 1 µM [3]: 2

Nc1ccc(-c2nnn(Cc3c(F)cc(C(=O)NO)cc3F)n2)cc1 [comp. 171, 4-[[5-(4-aminophenyl)tetrazol-2-yl]methyl]-3,5-difluoro-benzenecarbohydroxamic acid]
fold induction at 0.037 µM [2]: 10
fold induction at 0.111 µM [2]: 19
fold induction at 0.333 µM [2]: 20
fold induction at 1 µM [2]: 22
fold induction at 1 µM [3]: 3

Cn1c(Sc2c(F)cc(C(=O)NO)cc2F)nnc1-c1cccnn1 [comp. 179, 3,5-difluoro-4-[(4-methyl-5-pyridazin-3-yl-1,2,4-triazol-3-yl)sulfanyl]benzenecarbohydroxamic acid]
fold induction at 0.037 µM [2]: 2
fold induction at 0.111 µM [2]: 7
fold induction at 0.333 µM [2]: 6
fold induction at 1 µM [2]: 14
fold induction at 1 µM [3]: 1

Cn1c(Sc2c(F)cc(C(=O)NO)cc2F)nnc1-c1ncccc1F [comp. 180, 3,5-difluoro-4-[[5-(3-fluoro-2-pyridyl)-4-methyl-1,2,4-triazol-3-yl]sulfanyl]benzenecarbohydroxamic acid]
fold induction at 0.037 µM [2]: 2
fold induction at 0.111 µM [2]: 7
fold induction at 0.333 µM [2]: 15
fold induction at 1 µM [2]: 19
fold induction at 1 µM [3]: 1

O=C(NO)c1cc(F)c(Cc2nnc(-c3ccncc3)s2)c(F)c1 [compound 195, 3,5-difluoro-4-[[5-(4-pyridyl)-1,3,4-thiadiazol-2-yl]methyl]benzenecarbohydroxamic acid]
fold induction at 0.037 µM [2]: 6
fold induction at 0.111 µM [2]: 11
fold induction at 0.333 µM [2]: 10
fold induction at 1 µM [2]: 14
fold induction at 0.111 µM [3]: 1
fold induction at 0.333 µM [3]: 1
fold induction at 1 µM [3]: 1

— patent publication US11351178B2, “Selective HDAC6 inhibitors” (ITALFARMACO S.P.A., priority 2017, dated 2022)
